# Literature values as cited in paper PMC2821159 (Bioorganic & medicinal chemistry, 2009).
# Tested on: protein kinases
compound,measurement,value
"CNc1ncnc2c1c(-c1cccc(O)c1)cn2C(C)C [Compound 4, 3-(7-isopropyl-4-(methylamino)-7H-pyrrolo[2,3-d]pyrimidin-5yl)phenol]",inhibition against protein kinases,poor inhibition
